Data taken from US8580747B2, “Cyclic natriuretic peptide constructs” (Palatin Technologies, Inc., priority 2006, dated 2013).
Where two headings read alike, the source gives them in different places. Bridge positions count the residues as written; N and C are the ends. Square brackets hold non-standard residues; d marks the D form. Peptide text beside a SMILES is read from it. * marks the point of attachment. Piperazin2one(3S-Bu,6R-CO) = CCCC[C@@H]1NC[C@H](C(=O)*)NC1=O; X1 = N=C(N)NCCC[C@H]1C(=O)N[C@@H](C(N)=O)CN1*; X3 = CC(C)C[C@@H]1NC[C@H](C(=O)*)NC1=O; dNle = CCCC[C@@H](N)C(=O)O; Nle = CCCC[C@H](N)C(=O)O; Orn = NCCC[C@H](N)C(=O)O

How the values were obtained:
[1] = biological target: T1, NEP (neutral endopeptidase) (Homo sapiens, UniProt P08473); experiment: hNEP resistance assay (digestion by neutral endopeptidase); assay type: in vitro ADME; settings: pH 7.4
T1 construct: purchased R&D Systems, Minneapolis, Minn; 1182-ZN
Procedure: NEP resistance of various constructs of the invention was evaluated using the following experimental procedure. All constructs were diluted in 0.1 M Tris-HCL buffer (pH 7.4) to 100 μM. 40 μL of diluted constructs were added to each tube and all tubes were kept on ice. 40 μL of diluted NEP, either human recombinant NEP (R&D Systems, Minneapolis, Minn., catalogue #1182-ZN) at 8 ng/μL or mouse NEP (R&D Systems, catalog #1126-ZN) at 2.5 ng/μL, was added to each tube. The tubes were mixed gently and spun. […] At the end of the incubation time, the reaction was stopped by adding 5 μL of 10% TFA. […] The extent to which NEP was active against the constructs was then analyzed by HPLC and/or LC/MS. Data analysis included determining the percent of remaining starting material, i.e., undigested peptide construct, and the percent and sequence of each proteolytic fragment.

[2] = rat, in vivo, iv
[3] = human, isolated enzyme neprilysin
[4] = human recombinant NEP (neutral endopeptidase), incubation with human recombinant NEP at 37° C., 1 h, read-out: hNEP % of Starting Material 1 h
[5] = human recombinant NEP (neutral endopeptidase), incubation with human recombinant NEP at 37° C., 2 h, read-out: hNEP % of Starting Material 2 h

T1 sequence (P08473 52-750 limits assumed): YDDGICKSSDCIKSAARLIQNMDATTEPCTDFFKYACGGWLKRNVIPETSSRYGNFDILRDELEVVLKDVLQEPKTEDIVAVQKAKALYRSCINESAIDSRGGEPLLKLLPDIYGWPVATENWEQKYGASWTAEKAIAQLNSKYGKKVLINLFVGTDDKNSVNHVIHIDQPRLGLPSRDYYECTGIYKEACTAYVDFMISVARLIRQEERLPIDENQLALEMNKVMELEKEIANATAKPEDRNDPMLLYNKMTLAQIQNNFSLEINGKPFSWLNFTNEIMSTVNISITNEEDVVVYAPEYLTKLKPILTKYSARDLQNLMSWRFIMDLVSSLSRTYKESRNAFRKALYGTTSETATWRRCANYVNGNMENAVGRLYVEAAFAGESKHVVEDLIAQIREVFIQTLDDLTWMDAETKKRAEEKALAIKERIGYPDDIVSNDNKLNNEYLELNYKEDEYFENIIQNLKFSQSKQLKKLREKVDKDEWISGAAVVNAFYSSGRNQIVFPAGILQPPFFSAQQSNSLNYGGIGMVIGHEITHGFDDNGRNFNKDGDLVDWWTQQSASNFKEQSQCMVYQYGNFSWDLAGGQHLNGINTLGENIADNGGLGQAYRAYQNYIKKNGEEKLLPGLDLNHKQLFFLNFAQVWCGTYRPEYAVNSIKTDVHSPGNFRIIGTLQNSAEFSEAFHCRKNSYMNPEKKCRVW

| SMILES | remaining at 1 h, 50 µM [1, 3] [%] | remaining at 2 h, 50 µM [1, 3] [%] | clearance [2] [mL/min/kg] | AUC ([2]; 2 mg/kg) [µM·h] | Vd ([2]; 2 mg/kg) [L/kg] | clearance ([2]; 2 mg/kg) [mL/min/kg] | half-life ([2]; 2 mg/kg) [min] | remaining at 1 h, 50 µM [1, 4] [%] | remaining at 2 h, 50 µM [1, 5] [%] |
| --- | --- | --- | --- | --- | --- | --- | --- | --- | --- |
| CCCC[C@@H]1NC[C@H](C(=O)N[C@H]2CSSC[C@@H](C(=O)N[C@@H](Cc3ccc(O)cc3)C(=O)N3C[C@H](C(N)=O)NC(=O)[C@@H]3CCCNC(=N)N)NC(=O)[C@H](CO)NC(=O)[C@H]([C@@H](C)CC)NC(=O)[C@H](CCCNC(=N)N)NC(=O)[C@@H](CC(=O)O)NC(=O)[C@H](CCCC)NC(=O)[C@H](CCCNC(=N)N)NC(=O)CNC(=O)CNC(=O)[C@H](Cc3ccccc3)NC(=O)[C@H](Cc3c[nH]cn3)NC2=O)NC1=O [1-44] ({Piperazin2one(3S-Bu,6R-CO)}-CHFGGR[Nle][dD]RISCY-X1; disulfide 1-12) | 93 | 86 | 15 | 1.54 | 0.4 | 15 | 30 | – | – |
| CCCC[C@@H]1NC[C@H](C(=O)N[C@H]2CSSC[C@@H](C(=O)N[C@H](Cc3ccc(O)cc3)C(=O)N3C[C@H](C(N)=O)NC(=O)[C@@H]3CCCNC(=N)N)NC(=O)[C@H](CO)NC(=O)[C@H]([C@@H](C)CC)NC(=O)[C@H](CCCNC(=N)N)NC(=O)[C@H](CC(=O)O)NC(=O)[C@H](CCCC)NC(=O)[C@H](CCCNC(=N)N)NC(=O)CNC(=O)CNC(=O)[C@H](Cc3ccccc3)NC(=O)[C@H](Cc3c[nH]cn3)NC2=O)NC1=O [1-53] ({Piperazin2one(3S-Bu,6R-CO)}-CHFGGR[Nle]DRISC[dY]-X1; disulfide 1-12) | 87 | 78 | 40 | – | – | – | – | – | – |
| CCCC[C@@H]1NC[C@H](C(=O)N[C@H]2CSSC[C@@H](C(=O)N[C@@H](Cc3ccc(O)cc3)C(=O)N3C[C@H](C(N)=O)NC(=O)[C@@H]3CCCNC(=N)N)NC(=O)[C@H](CO)NC(=O)[C@H]([C@@H](C)CC)NC(=O)[C@H](CCCNC(=N)N)NC(=O)[C@H](CC(=O)O)NC(=O)[C@@H](CCCC)NC(=O)[C@H](CCCNC(=N)N)NC(=O)CNC(=O)CNC(=O)[C@H](Cc3ccccc3)NC(=O)[C@H](Cc3c[nH]cn3)NC2=O)NC1=O [1-43] ({Piperazin2one(3S-Bu,6R-CO)}-CHFGGR[dNle]DRISCY-X1; disulfide 1-12) | 97 | 92 | 14 | 1.25 | 0.6 | 14 | 42 | – | – |
| CCCC[C@@H]1NC[C@H](C(=O)N[C@H]2CSSC[C@@H](C(=O)N[C@@H](Cc3ccc(O)cc3)C(=O)N3C[C@H](C(N)=O)NC(=O)[C@@H]3CCCNC(=N)N)NC(=O)[C@H](C)NC(=O)[C@H]([C@@H](C)CC)NC(=O)[C@H](CCCNC(=N)N)NC(=O)[C@H](CC(=O)O)NC(=O)[C@H](CCCC)NC(=O)[C@H](CCCNC(=N)N)NC(=O)CNC(=O)CNC(=O)[C@H](Cc3ccccc3)NC(=O)[C@H](C)NC2=O)NC1=O [1-69] ({Piperazin2one(3S-Bu,6R-CO)}-CAFGGR[Nle]DRIACY-X1; disulfide 1-12) | – | – | – | 0.113 | 0.8 | 168 | 6 | – | – |
| CCCC[C@@H]1NC[C@H](C(=O)N[C@H]2CSSC[C@@H](C(=O)N[C@@H](Cc3ccc(O)cc3)C(=O)N3C[C@H](C(N)=O)NC(=O)[C@@H]3CCCNC(=N)N)NC(=O)[C@H](CO)NC(=O)[C@H]([C@@H](C)CC)NC(=O)[C@H](C)NC(=O)[C@H](CC(=O)O)NC(=O)[C@H](CCCC)NC(=O)[C@H](C)NC(=O)CNC(=O)CNC(=O)[C@H](Cc3ccccc3)NC(=O)[C@H](Cc3c[nH]cn3)NC2=O)NC1=O [1-100] ({Piperazin2one(3S-Bu,6R-CO)}-CHFGGA[Nle]DAISCY-X1; disulfide 1-12) | – | – | 456 | 0.042 | 0.8 | 456 | 6 | 6 | 0 |
| CCCC[C@@H]1NC[C@H](C(=O)N[C@H]2CSSC[C@@H](C(=O)N[C@@H](Cc3ccc(O)cc3)C(=O)N3C[C@H](C(N)=O)NC(=O)[C@@H]3CCCNC(=N)N)NC(=O)[C@H](CO)NC(=O)[C@H]([C@@H](C)CC)NC(=O)[C@H](CCCNC(=N)N)NC(=O)[C@H](CC(=O)O)NC(=O)[C@H](CCCC)NC(=O)[C@H](CCCNC(=N)N)NC(=O)CNC(=O)CNC(=O)[C@@H](Cc3ccccc3)NC(=O)[C@H](Cc3c[nH]cn3)NC2=O)NC1=O [1-39] ({Piperazin2one(3S-Bu,6R-CO)}-CH[dF]GGR[Nle]DRISCY-X1; disulfide 1-12) | – | – | – | 0.142 | 2.8 | 134 | 18 | – | – |
| CCCC[C@@H]1NC[C@H](C(=O)N[C@H]2CSSC[C@@H](C(=O)N[C@@H](Cc3ccc(O)cc3)C(=O)N3C[C@H](C(N)=O)NC(=O)[C@@H]3CCCNC(=N)N)NC(=O)[C@H](CO)NC(=O)[C@H]([C@@H](C)CC)NC(=O)[C@H](CCCNC(=N)N)NC(=O)[C@H](CC(=O)O)NC(=O)[C@H](CCCC)NC(=O)[C@H](CCCN)NC(=O)CNC(=O)CNC(=O)[C@H](Cc3ccccc3)NC(=O)[C@H](Cc3c[nH]cn3)NC2=O)NC1=O [1-54] ({Piperazin2one(3S-Bu,6R-CO)}-CHFGG[Orn][Nle]DRISCY-X1; disulfide 1-12) | – | – | 66 | 0.277 | 1 | 66 | 12 | 85 | 82 |
| CCCC[C@@H]1NC[C@H](C(=O)N[C@H]2CSSC[C@@H](C(=O)N[C@@H](Cc3ccc(O)cc3)C(=O)N3C[C@H](C(N)=O)NC(=O)[C@@H]3CCCNC(=N)N)NC(=O)[C@H](CO)NC(=O)[C@H]([C@@H](C)CC)NC(=O)[C@H](CCCNC(=N)N)NC(=O)[C@H](C)NC(=O)[C@H](CCCC)NC(=O)[C@H](CCCNC(=N)N)NC(=O)CNC(=O)CNC(=O)[C@H](Cc3ccccc3)NC(=O)[C@H](Cc3c[nH]cn3)NC2=O)NC1=O [1-35] | – | – | – | 0.01 | 57 | 1860 | 24 | – | – |
| CCCC[C@@H]1NC[C@H](C(=O)N[C@H]2CSSC[C@@H](C(=O)N[C@@H](Cc3ccc(O)cc3)C(=O)N3C[C@H](C(N)=O)NC(=O)[C@@H]3CCCNC(=N)N)NC(=O)[C@H](CO)NC(=O)[C@H]([C@@H](C)CC)NC(=O)[C@H](CCCNC(=N)N)NC(=O)[C@H](CC(=O)O)NC(=O)[C@H](CCCC)NC(=O)[C@@H](CCCNC(=N)N)NC(=O)CNC(=O)CNC(=O)[C@H](Cc3ccccc3)NC(=O)[C@H](Cc3c[nH]cn3)NC2=O)NC1=O [1-42] ({Piperazin2one(3S-Bu,6R-CO)}-CHFGG[dR][Nle]DRISCY-X1; disulfide 1-12) | – | – | – | 0.369 | 0.7 | 50 | 18 | – | – |
| CCCC[C@@H]1NC[C@H](C(=O)N[C@H]2CSSC[C@@H](C(=O)N[C@@H](Cc3ccc(O)cc3)C(=O)N3C[C@H](C(N)=O)NC(=O)[C@@H]3CCCNC(=N)N)NC(=O)[C@H](CO)NC(=O)[C@H]([C@@H](C)CC)NC(=O)[C@@H](CCCNC(=N)N)NC(=O)[C@H](CC(=O)O)NC(=O)[C@H](CCCC)NC(=O)[C@H](CCCNC(=N)N)NC(=O)CNC(=O)CNC(=O)[C@H](Cc3ccccc3)NC(=O)[C@H](Cc3c[nH]cn3)NC2=O)NC1=O [1-45] ({Piperazin2one(3S-Bu,6R-CO)}-CHFGGR[Nle]D[dR]ISCY-X1; disulfide 1-12) | – | – | – | 0.85 | 0.3 | 23 | 18 | – | – |
| CCCC[C@@H]1NC[C@H](C(=O)N[C@H]2CSSC[C@@H](C(=O)N[C@@H](Cc3ccc(O)cc3)C(=O)N3C[C@H](C(N)=O)NC(=O)[C@@H]3CCCNC(=N)N)NC(=O)[C@H](CO)NC(=O)[C@H]([C@@H](C)CC)NC(=O)[C@H](CCCNC(=N)N)NC(=O)[C@H](CC(=O)O)NC(=O)[C@H](CCCC)NC(=O)[C@H](CCCNC(=N)N)NC(=O)CNC(=O)CNC(=O)[C@H](Cc3ccccc3)NC(=O)[C@@H](Cc3c[nH]cn3)NC2=O)NC1=O [1-28] ({Piperazin2one(3S-Bu,6R-CO)}-C[dH]FGGR[Nle]DRISCY-X1; disulfide 1-12) | – | – | – | 0.351 | 1.1 | 51 | 24 | – | – |
| CCCC[C@@H]1NC[C@H](C(=O)N[C@H]2CSSC[C@@H](C(=O)N[C@@H](Cc3ccc(O)cc3)C(=O)N3C[C@H](C(N)=O)NC(=O)[C@@H]3CCCNC(=N)N)NC(=O)[C@H](CO)NC(=O)[C@H]([C@@H](C)CC)NC(=O)[C@H](CCCNC(=N)N)NC(=O)[C@H](CC(=O)O)NC(=O)[C@H](CCCC)NC(=O)[C@H](CCCNC(=N)N)NC(=O)CNC(=O)[C@@H](C)NC(=O)[C@H](Cc3ccccc3)NC(=O)[C@H](Cc3c[nH]cn3)NC2=O)NC1=O [1-68] | – | – | – | 0.478 | 0.5 | 40 | 18 | – | – |
| CCCC[C@@H]1NC(=O)[C@H](CCCNC(=N)N)NC(=O)CNC(=O)CNC(=O)[C@H](Cc2ccccc2)NC(=O)[C@H](Cc2c[nH]cn2)NC(=O)[C@@H](NC(=O)[C@H]2CN[C@@H](CC(C)C)C(=O)N2)CSSC[C@@H](C(=O)N[C@@H](Cc2ccc(O)cc2)C(=O)N2C[C@H](C(N)=O)NC(=O)[C@@H]2CCCNC(=N)N)NC(=O)[C@H](CO)NC(=O)[C@H]([C@@H](C)CC)NC(=O)[C@H](CCCNC(=N)N)NC(=O)[C@H](CC(=O)O)NC1=O [1-51] (X3-CHFGGR[Nle]DRISCY-X1; disulfide 1-12) | – | – | – | 0.19 | 1 | 94 | 12 | – | – |
